Test results: patent US20240360194A1, “New Peptides as Potent and Selective GIP Receptor Agonists” (Sanofi, priority 2021, published 2024)
pEC50, pIC50: −log10 of the molar value. Numbered stars: 1 amine (or outer) side, 2 acyl side, 3 side chain; on linkers, the order of the positions; unused ones are H or OH. Square brackets hold non-standard residues; d marks the D form. Side chains are listed from the residue outwards. Peptide text beside a SMILES is read from it. * marks the point of attachment. C18 diacid = O=C(O)CCCCCCCCCCCCCCCCC(=O)*; γGlu = O=C(O)[C@H](CCC(=O)[*:2])N[*:1]; dIva = CC[C@@](C)(N)C(=O)O; AEEA = NCCOCCOCC(=O)O; Aib = CC(C)(N)C(=O)O

Experiments:
[1] = biological target: human GLP-1 receptor (hGLP-1R) (Homo sapiens, UniProt P43220); assay: In vitro cellular cAMP assay for GLP-1 receptor efficacy (HEK-293 cell line over-expressing receptor); assay type: cell-based; conditions: HEK-293, 0.1% BSA
[2] = biological target: T1, human GIP receptor (Homo sapiens, UniProt P48546); assay: In vitro cellular cAMP assay for GIP receptor efficacy (human adipocytes); assay type: cell-based; conditions: for pEC50: read-out: hGIPR EC50; for Emax: read-out: hGIPR Emax
T1 construct: human adipocytes endogenously expressing the human GIP receptor; host or cells: human preadipocytes (Lonza) differentiated to adipocytes
T1 sequence (P48546 22-466): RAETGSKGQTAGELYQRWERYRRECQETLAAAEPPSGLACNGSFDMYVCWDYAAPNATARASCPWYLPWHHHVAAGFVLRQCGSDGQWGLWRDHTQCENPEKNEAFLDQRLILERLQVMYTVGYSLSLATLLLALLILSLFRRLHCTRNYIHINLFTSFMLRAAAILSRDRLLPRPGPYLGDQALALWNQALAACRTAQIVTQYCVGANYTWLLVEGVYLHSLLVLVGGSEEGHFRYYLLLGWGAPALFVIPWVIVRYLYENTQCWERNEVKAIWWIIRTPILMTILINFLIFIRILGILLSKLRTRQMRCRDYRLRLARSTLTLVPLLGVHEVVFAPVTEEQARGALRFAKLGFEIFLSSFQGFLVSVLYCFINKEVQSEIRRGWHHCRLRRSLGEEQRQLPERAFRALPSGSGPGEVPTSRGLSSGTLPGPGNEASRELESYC
Method in brief: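 Human preadipocytes expanded, then differentiated 6 days (insulin, dexamethasone, PPARγ agonist, 200 μM IBMX, L-thyroxine) before plating at 5000 cells/well. Test compound applied 30 min at room temperature; cAMP measured by HTRF after 1 h with lysis-buffer reagents, read as 665/620 nm fluorescence ratio.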

[3] = biological target: T2, human GIP receptor (hGIPR) (Homo sapiens, UniProt P48546); assay: Binding assay, displacement of [125I]GIP from HEK-293 membranes over-expressing GIPR (SPA); conditions: [125I]GIP displacement
T2 sequence (P48546 22-466): T1 sequence (P48546 22-466)
Method in brief: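 Membranes from HEK-293 cells over-expressing human GIPR or GLP-1R, isolated by homogenising, sonicating and ultracentrifuging at 100000×g into HEPES/EDTA/NaCl buffer with protease inhibitors, were used for binding.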

[4] = Pharmacokinetic evaluation in rats; assay type: in vivo; conditions: male, SD, rat, in vivo
Procedure: Compounds were administered in a suitable buffer system, e.g. PBS buffer solution at pH7.4 or DPBS solution at concentrations of 0.05, 0.1, 0.5 or 1 mg/ml depending on dose, species and administration volume. Male SD rats were dosed 0.25 mg/kg, 0.5 mg/kg or 1 mg/kg intravenously (i.v.) or subcutaneously (s.c.). Blood samples were collected after 0.08, 0.25, 0.5, 1, 2, 4, 8, 24, 32, and 48 h post i.v. application and 0.25, 0.5, 1, 2, 4, 8, 24, 32, and 48 h post s.c. application, respectively. Plasma samples were analysed after protein precipitation via liquid chromatography mass spectrometry (LC/MS). PK parameters and half-life were calculated using Phoenix-WinNonlin 8.1 using a non-compartmental model and linear trapezoidal interpolation calculation. Pharmacokinetic profiles were determined as described in Methods.

human GLP-1 receptor (hGLP-1R), sequence (P43220 24-463): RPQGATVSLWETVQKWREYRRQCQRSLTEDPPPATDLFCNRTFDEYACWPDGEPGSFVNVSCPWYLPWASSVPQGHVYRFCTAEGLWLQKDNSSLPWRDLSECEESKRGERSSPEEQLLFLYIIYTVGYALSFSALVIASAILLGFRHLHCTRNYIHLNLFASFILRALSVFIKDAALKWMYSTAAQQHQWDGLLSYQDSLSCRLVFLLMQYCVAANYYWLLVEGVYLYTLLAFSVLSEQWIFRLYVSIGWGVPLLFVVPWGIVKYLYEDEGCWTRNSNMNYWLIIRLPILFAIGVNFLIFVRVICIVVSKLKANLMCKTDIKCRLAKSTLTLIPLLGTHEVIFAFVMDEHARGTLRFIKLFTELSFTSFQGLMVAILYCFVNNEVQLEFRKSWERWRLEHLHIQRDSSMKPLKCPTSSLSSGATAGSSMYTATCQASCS

pEC50 [1] | pEC50 [2] | Emax [2] [%] | pIC50 [3] | Structure (SMILES) | AUC(0-t) ([4]; iv, 0.25 mg/kg) [µg·h/mL] | Cmax ([4]; iv, 0.25 mg/kg) [ng/mL] | clearance ([4]; iv, 0.25 mg/kg) [mL/h/kg] | half-life ([4]; iv, 0.25 mg/kg) [h] | AUC(0-t) ([4]; sc, 0.5 mg/kg) [µg·h/mL] | Cmax ([4]; sc, 0.5 mg/kg) [ng/mL] | bioavailability ([4]; sc, 0.5 mg/kg) [%] | half-life ([4]; sc, 0.5 mg/kg) [h]
< 9.00 | 8.62 | 134 | 8.82 | CC[C@H](C)[C@H](NC(=O)[C@H](Cc1ccccc1)NC(=O)[C@H](CCC(=O)O)NC(=O)[C@H](CCC(=O)O)NC(=O)[C@H](CCC(N)=O)NC(=O)[C@H](Cc1c[nH]cn1)NC(=O)[C@@H](NC(=O)[C@H](CCCNC(=N)N)NC(=O)[C@H](CC(=O)O)NC(=O)[C@H](CCCCNC(=O)COCCOCCNC(=O)COCCOCCNC(=O)CC[C@H](NC(=O)CCCCCCCCCCCCCCCCC(=O)O)C(=O)O)NC(=O)C(C)(C)NC(=O)[C@@H](NC(=O)[C@H](CO)NC(=O)[C@H](CC(C)C)NC(=O)[C@H](CC(=O)O)NC(=O)[C@H](CO)NC(=O)[C@@H](NC(=O)[C@H](Cc1ccccc1)NC(=O)[C@@H](NC(=O)CNC(=O)[C@H](CCC(=O)O)NC(=O)C(C)(C)NC(=O)[C@@H](N)Cc1ccc(O)cc1)[C@@H](C)O)[C@@H](C)CC)[C@@H](C)CC)[C@@H](C)CC)C(=O)N[C@@H](CCC(=O)O)C(=O)N[C@@H](Cc1c[nH]c2ccccc12)C(=O)N[C@@H](CC(C)C)C(=O)N[C@@H](CC(C)C)C(=O)N[C@@H](C)C(=O)N[C@@H](CCC(N)=O)C(=O)N[C@@H](CCCNC(=N)N)C(=O)NCC(N)=O [SEQ ID NO: 4, H2N-Y-Aib-E-G-T-F-I-S-D-L-S-I-Aib-K[{AEEA}2-gGlu-C18OH]-D-R-I-H-Q-E-E-F-I-E-W-L-L-A-Q-R-G-NH2] | – | – | – | – | – | – | – | –
< 8.00 | 9.30 | 112 | 9.30 | CC[C@H](C)[C@H](NC(=O)[C@H](CCCNC(=N)N)NC(=O)[C@H](CC(=O)O)NC(=O)[C@H](CCCCNC(=O)COCCOCCNC(=O)COCCOCCNC(=O)CC[C@H](NC(=O)CCCCCCCCCCCCCCCCC(=O)O)C(=O)O)NC(=O)C(C)(C)NC(=O)[C@@H](NC(=O)[C@H](CO)NC(=O)[C@H](CC(C)C)NC(=O)[C@H](CC(=O)O)NC(=O)[C@H](CO)NC(=O)[C@@H](NC(=O)[C@H](Cc1ccccc1)NC(=O)[C@@H](NC(=O)CNC(=O)[C@H](CCC(=O)O)NC(=O)C(C)(C)NC(=O)[C@@H](N)Cc1ccc(O)cc1)[C@@H](C)O)[C@@H](C)CC)[C@@H](C)CC)C(=O)N[C@@H](Cc1c[nH]cn1)C(=O)N[C@@H](CCC(N)=O)C(=O)NC(C)(C)C(=O)N[C@@H](CCC(=O)O)C(=O)N[C@@H](Cc1ccccc1)C(=O)N[C@H](C(=O)N[C@@H](CCC(=O)O)C(=O)N[C@@H](Cc1c[nH]c2ccccc12)C(=O)N[C@@H](CC(C)C)C(=O)N[C@@H](CC(C)C)C(=O)N[C@@H](C)C(=O)N[C@@H](CCC(N)=O)C(=O)N[C@@H](CCC(=O)O)C(=O)NCC(N)=O)[C@@H](C)CC [SEQ ID NO: 12, H2N-Y-Aib-E-G-T-F-I-S-D-L-S-I-Aib-K[{AEEA}2-gGlu-C18OH]-D-R-I-H-Q-Aib-E-F-I-E-W-L-L-A-Q-E-G-NH2] | – | – | – | – | – | – | – | –

Second part, the compound before the results:

Structure (SMILES) | pEC50 [1] | pEC50 [2] | Emax [2] [%] | pIC50 [3] | AUC(0-t) ([4]; iv, 0.25 mg/kg) [µg·h/mL] | Cmax ([4]; iv, 0.25 mg/kg) [ng/mL] | clearance ([4]; iv, 0.25 mg/kg) [mL/h/kg] | half-life ([4]; iv, 0.25 mg/kg) [h] | AUC(0-t) ([4]; sc, 0.5 mg/kg) [µg·h/mL] | Cmax ([4]; sc, 0.5 mg/kg) [ng/mL] | bioavailability ([4]; sc, 0.5 mg/kg) [%] | half-life ([4]; sc, 0.5 mg/kg) [h]
CC[C@H](C)[C@H](NC(=O)[C@H](Cc1ccccc1)NC(=O)[C@H](CCC(=O)O)NC(=O)[C@H](CCC(=O)O)NC(=O)[C@H](CCC(N)=O)NC(=O)[C@H](Cc1c[nH]cn1)NC(=O)[C@@H](NC(=O)[C@H](CCCNC(=N)N)NC(=O)[C@H](CC(=O)O)NC(=O)[C@H](CCCCNC(=O)COCCOCCNC(=O)COCCOCCNC(=O)CC[C@H](NC(=O)CCCCCCCCCCCCCCCCC(=O)O)C(=O)O)NC(=O)C(C)(C)NC(=O)[C@@H](NC(=O)[C@H](CO)NC(=O)[C@H](CC(C)C)NC(=O)[C@H](CC(=O)O)NC(=O)[C@H](CO)NC(=O)[C@@H](NC(=O)[C@@](C)(CC)NC(=O)[C@@H](NC(=O)CNC(=O)[C@H](CCC(=O)O)NC(=O)C(C)(C)NC(=O)[C@@H](N)Cc1ccc(O)cc1)[C@@H](C)O)[C@@H](C)CC)[C@@H](C)CC)[C@@H](C)CC)C(=O)N[C@@H](CCC(=O)O)C(=O)N[C@@H](Cc1c[nH]c2ccccc12)C(=O)N[C@@H](CC(C)C)C(=O)N[C@@H](CC(C)C)C(=O)N[C@@H](C)C(=O)N[C@@H](CCC(N)=O)C(=O)N[C@@H](CCCNC(=N)N)C(=O)NCC(N)=O [SEQ ID NO: 15, H2N-Y-Aib-E-G-T-Iva-I-S-D-L-S-I-Aib-K[{AEEA}2-gGlu-C18OH]-D-R-I-H-Q-E-E-F-I-E-W-L-L-A-Q-R-G-NH2] | < 8.00 | 9.10 | 109 | 9.70 | – | – | – | – | – | – | – | –
CC[C@H](C)[C@H](NC(=O)[C@H](CCC(=O)O)NC(=O)[C@H](CCC(=O)O)NC(=O)[C@H](CCCCNC(=O)COCCOCCNC(=O)COCCOCCNC(=O)CC[C@H](NC(=O)CCCCCCCCCCCCCCCCC(=O)O)C(=O)O)NC(=O)C(C)(C)NC(=O)[C@@H](NC(=O)[C@H](CO)NC(=O)[C@H](CC(C)C)NC(=O)[C@H](CC(=O)O)NC(=O)[C@H](CO)NC(=O)[C@@H](NC(=O)[C@H](Cc1ccccc1)NC(=O)[C@@H](NC(=O)CNC(=O)[C@H](CCC(=O)O)NC(=O)C(C)(C)NC(=O)[C@@H](N)Cc1ccc(O)cc1)[C@@H](C)O)[C@@H](C)CC)[C@@H](C)CC)C(=O)N[C@@H](Cc1c[nH]cn1)C(=O)N[C@@H](CCC(N)=O)C(=O)NC(C)(C)C(=O)N[C@@H](CCC(=O)O)C(=O)N[C@@H](Cc1ccccc1)C(=O)N[C@H](C(=O)N[C@@H](CCC(=O)O)C(=O)N[C@@H](Cc1c[nH]c2ccccc12)C(=O)N[C@@H](CC(C)C)C(=O)N[C@@H](CC(C)C)C(=O)N[C@@H](C)C(=O)N[C@@H](CCC(N)=O)C(=O)NCC(=O)N1CCC[C@H]1C(=O)N[C@@H](CO)C(=O)N[C@@H](CO)C(=O)NCC(=O)N[C@@H](C)C(=O)N1CCC[C@H]1C(=O)N1CCC[C@H]1C(=O)N1CCC[C@H]1C(=O)N[C@@H](CO)C(N)=O)[C@@H](C)CC [SEQ ID NO: 19, H2N-Y-Aib-E-G-T-F-I-S-D-L-S-I-Aib-K[{AEEA}2-gGlu-C18OH]-E-E-I-H-Q-Aib-E-F-I-E-W-L-L-A-Q-G-P-S-S-G-A-P-P-P-S-NH2] (H-Y[Aib]EGTFISDLSI[Aib]K([AEEA-AEEA-γGlu-C18 diacid])EEIHQ[Aib]EFIEWLLAQGPSSGAPPPS-NH2) | < 8.00 | – | 94 | – | 194 | 12800 | 1.09 | 19.6 | 189 | 5590 | 54 | 20.1
CC[C@H](C)[C@H](NC(=O)[C@H](CCCNC(=N)N)NC(=O)[C@H](CC(=O)O)NC(=O)[C@H](CCCCNC(=O)COCCOCCNC(=O)COCCOCCNC(=O)CC[C@H](NC(=O)CCCCCCCCCCCCCCCCC(=O)O)C(=O)O)NC(=O)C(C)(C)NC(=O)[C@@H](NC(=O)[C@H](CO)NC(=O)[C@H](CC(C)C)NC(=O)[C@H](CC(=O)O)NC(=O)[C@H](CO)NC(=O)[C@@H](NC(=O)[C@H](Cc1ccccc1)NC(=O)[C@@H](NC(=O)CNC(=O)[C@H](CCC(=O)O)NC(=O)C(C)(C)NC(=O)[C@@H](N)Cc1ccc(O)cc1)[C@@H](C)O)[C@@H](C)CC)[C@@H](C)CC)C(=O)N[C@@H](Cc1c[nH]cn1)C(=O)N[C@@H](CCC(N)=O)C(=O)NC(C)(C)C(=O)N[C@@H](CCC(=O)O)C(=O)N[C@@H](Cc1ccccc1)C(=O)N[C@H](C(=O)N[C@@H](CCC(=O)O)C(=O)N[C@@H](Cc1c[nH]c2ccccc12)C(=O)N[C@](C)(CC)C(=O)N[C@@H](CC(C)C)C(=O)N[C@@H](C)C(=O)N[C@@H](CCC(N)=O)C(=O)NCC(=O)N1CCC[C@H]1C(=O)N[C@@H](CO)C(=O)N[C@@H](CO)C(=O)NCC(=O)N[C@@H](C)C(=O)N1CCC[C@H]1C(=O)N1CCC[C@H]1C(=O)N1CCC[C@H]1C(=O)N[C@@H](CO)C(N)=O)[C@@H](C)CC [SEQ ID NO: 31, H2N-Y-Aib-E-G-T-F-I-S-D-L-S-I-Aib-K[{AEEA}2-gGlu-C18OH]-D-R-I-H-Q-Aib-E-F-I-E-W-Iva-L-A-Q-G-P-S-S-G-A-P-P-P-S-NH2] (H-Y[Aib]EGTFISDLSI[Aib]K([AEEA-AEEA-γGlu-C18 diacid])DRIHQ[Aib]EFIEW[dIva]LAQGPSSGAPPPS-NH2) | < 8.00 | 9.15 | 121 | 9.52 | – | – | – | – | – | – | – | –
